Key:
[1] = target: T1, TrxR/Trx-1 (Homo sapiens, UniProt P10599); assay: Ellman test, inhibition of TrxR/Trx-1 activity; type: biochemical; details: read-out: TrxR/Trx-1 IC50
T1 sequence (P10599 2-105 limits assumed): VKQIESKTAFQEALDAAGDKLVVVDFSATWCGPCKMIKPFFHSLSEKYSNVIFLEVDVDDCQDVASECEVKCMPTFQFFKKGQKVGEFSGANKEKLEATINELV
Description: Ellman Test—Inhibitory Effect of 6-dithio-substituted-2′-deoxyguanosine Derivative Analogues on TrxR/Trx-1 Activity
A TrxR/TR experiment based on the Ellman reaction was used to determine the inhibitory activity of candidate compounds. Ellman reaction is that 5,5′-dithiobis (2-nitrobenzoic acid) (DTNB) reacts with sulfhydryl (—SH) to form a yellow substance with absorption at 412 nm. The increase of absorption can be equivalent to the decrease of NADPH mediated by TrxR, thus further judging the activity of TrxR/Trx-1. All experiments were carried out on 96-well plates. Before the start of the enzyme reaction, five groups of corresponding test compound stock solutions with different concentrations were prepared. In the TrxR/Trx-1 reaction, a total volume per well was 60 μL, including 100 mM HEPES, 5 mM EDTA (HE buffer, pH 7.5), 1 mM NADPH, 1.0 μM TrxR, 0.8 μM Trx-1, 2.5 mg/mL bovine insulin and the required concentration of compounds to be tested. No compound to be tested was added to the control group. No compound to be tested, TrxR and Trx-1 were added in the blank group. The plate was shaken on an oscillator for 30 seconds to fully mix the reactants. After incubation at 37° C. for 30 min, 100 μL of the prepared mixture containing 6 M guanidine hydrochloride, 50 mm Tris and 10 mm DTNB was added to terminate the reaction. After 15 minutes of incubation, the absorbance was measured at 412 nm. Finally, TrxR/Trx-1 activity %=(Atest−Akb)/(Acontrol−Akb), that is, the relative percentage of TrxR/Trx-1 activity was the activity inhibited by adding 2′-deoxyguanosine derivatives relative to the activity without 2′-deoxyguanosine derivatives. The data were fitted into a concentration response curve with a variable slope, and the IC50 value was calculated from the curve.

[2] = system: human colon cancer cells HCT116; assay: MTT assay, tumor cell growth inhibition, HCT116; type: cell-based; details: HCT-116, 48 hours
Description: (§1) MTT Assay—Inhibitory Effect of 6-dithio-substituted-2′-deoxyguanosine Derivatives on Tumor Cell Growth
(§2) We measured the tumor cell growth inhibitory activity of candidate compounds by MTT assay. Human tumor cells in logarithmic growth phase were digested with 0.25% pancreatin for a certain time, centrifuged, re-suspended and counted with a blood cell counting plate to prepare a cell suspension, and the cell suspension was adjusted to 1.0×10^4-1×10^5 cells/mL. The cell suspension was inoculated into a 96-well culture plate, 100 μL per well, and cultured in an incubator with saturated humidity, 37° C. and 5% CO2 for 24 hours until the cells completely adhered to the wall. The test compound was diluted to the required concentration with a complete medium, the complete medium of the 96-well culture plate inoculated with human tumor cells was sucked out, a medicament-containing medium was added, 100 μL per well, the final concentration of DMSO was less than 0.1%, and the culture plate was put in an incubator for 48 hours. 10 μl of MTT was added to each well of the 96-well plate, and the culture was continued for 4 h. The culture was stopped and the culture solution in the well was carefully sucked off. 150 μL DMSO was added to each well, and shaken at a low speed for 10 min on a shaking table, so that the crystal was fully dissolved. The absorbance of each well was measured at OD 570 nm of an enzyme-linked immunosorbent assay instrument. At the same time, zeroing wells (the culture medium, MTT, dimethyl sulfoxide) and control wells (cells, a drug dissolution medium with the same concentration, a culture solution, MTT, dimethyl sulfoxide) were set up, and the cell growth inhibitory activity was calculated with the corresponding solvents as the control. 3-6 multiple wells in each group were set up with repetition of several times. Cell viability of control=(Adrug group−Azeroing well)/(Acontrol well−Azeroing well)*100%. Drawing was drawn, the data were fitted into a concentration response curve with a variable slope, and IC50 value was calculated from the curve.

[3] = system: human melanoma cells A375; assay: MTT assay, tumor cell growth inhibition, A375; type: cell-based; details: A-375, 48 hours
Description: as §1, §2

[4] = system: human gastric cancer cells BGC; assay: MTT assay, tumor cell growth inhibition, BGC; type: cell-based; details: 48 hours
Description: as §1, §2

[5] = system: human leukemia cells K562; assay: MTT assay, tumor cell growth inhibition, K562; type: cell-based; details: 48 hours
Description: as §1, §2

[6] = system: human non-small cell lung cancer A549; assay: MTT assay, tumor cell growth inhibition, A549; type: cell-based; details: 48 hours
Description: as §1, §2

[7] = system: human breast cancer cells Bcap37; assay: MTT assay, tumor cell growth inhibition, Bcap37; type: cell-based; details: 48 hours
Description: as §1, §2

[8] = system: human melanoma cell A375 tumor; assay: Human melanoma cell A375 tumor-bearing mouse model, antitumor effect; type: in vivo, nude mice; details: compound D 10 mg/kg, DTIC 20.4 mg/kg (4 times molar), 6-thio-dG+PX12 at twice the molar amount
Method: 2) Human Melanoma Cell A375 Tumor-Bearing Mouse Model
We further studied the inhibitory effect of the compound D on human malignant melanoma by using A375 tumor-bearing mouse model. The method was basically the same as above. Dacarbazine (DTIC) is the first-line drug for melanoma. The designed administration groups were: compound D 10 mg/kg group; 6-thio-dG+PX12 combined drug group (the dose is equivalent to twice the molar amount of the compound D); DTIC 20.4 mg/kg group (the dose is equivalent to 4 times the molar amount of the compound D) and blank solvent group.

CC(C)SSc1nc(N)nc2c1ncn2[C@H]1C[C@H](O)[C@@H](CO)O1 [D, 6-(isopropyldithio)-2′-deoxyguanosine]
IC50 [1]: 4.26 µM
IC50 [2]: 1.09 µM
IC50 [3]: 0.37 µM
IC50 [4]: 11.7 µM
IC50 [5]: 15.7 µM
IC50 [6]: 31.1 µM
IC50 [7]: 22.8 µM
Antitumor effect (tumor volume) compared with controls [8]: significantly higher than that of DITC

Reference: patent US11247994B2, “6-dithio-substituted-2′-deoxyguanosine compound, preparation method thereof and use thereof” (ZHEJIANG UNIVERSITY, priority 2018, dated 2022)
